Earlier results on 1 compound are cited in patent publication US10485808B2, “Selective progesterone receptor modulators (SPRM) and stabilized estrogen level in patient” (BAYER PHARMA AKTIENGESELLSCHAFT, priority 2017, dated 2019).

The subject of this series is patients with Uterine Fibroids (UF). The conditions noted are these: cited from earlier work; for Patients with moderate to severe hot flushes: 12-13 weeks of treatment; for Serum estradiol levels after treatment: after 12-13 weeks treatment.

Like-named read-outs stand apart in the source and are kept apart here.

`CC(=O)O[C@]1(C(C)=O)CC[C@H]2[C@@H]3CCC4=CC(=O)CCC4=C3[C@@H](c3ccc(N(C)C)cc3)C[C@@]21C` [Ulipristal acetate]: where the note is “5 mg/day”, the “Patients with moderate to severe hot flushes” value is given as 11%, the “Serum estradiol levels after treatment” value was 64 pg/mL and the “Amenorrhoea rate (secondary endpoint)” value was 75%. Also, the “Hot flushes of any severity” value (5 mg) is given as 26%. Moreover, where the note is “10 mg/day”, the “Patients with moderate to severe hot flushes” value is reported as 10%, the “Serum estradiol levels after treatment” value is reported as 61 pg/mL and the “Amenorrhoea rate (secondary endpoint)” value was 89%. For the same compound, the “Hot flushes of any severity” value (10 mg) is on record as 24%.
